These results are taken from publication PMC10748060, “In Silico and In Vitro Evaluation of the Mechanism of Action of Three VX809-Based Hybrid Derivatives as Correctors of the F508del CFTR Protein” (Pharmaceuticals, 2023).

Entries after “also recorded” stand apart in the source; their conditions may differ.

In one data set the test system is HEK-t cells. It counts as cell-based. Also on record: TDMax (maximum toxicity): unit not given here. To be noted: 24 h incubation, mean ± SEM. As for the experimental part: (§1) In both cases, media were supplemented with 10% FBS, 2 mM L-Glutamine, 1% PenStrep (100 U/mL), 1 mg/mL geneticin (G418), and 0.6 mg/mL zeocin as selection agents. Cells were grown under standard CO2 and temperature conditions. Confluence of cell was avoided to prevent loss of differentiation.
(§2) Cells were seeded into 48-well plates at a concentration of 0.3 × 10^5 cells per well. […] After exposition, cells were trypsinised and harvested for toxicity evaluation. To avoid an underestimation of the number of dead cells, the cells that were detached from the plates during exposure to the compounds were collected and considered. For each condition tested, at least four technical replicates were evaluated. In each well, at least 100 cells were considered.

A further data set has as its system CFBE41O^− cells. Format: cell-based. To be noted: 24 h incubation, mean ± SEM. As for the experimental part: as §1, §2
For a further data set, the system named is FRT cells. It counts as cell-based. To be noted: 24 h incubation, mean ± SEM. The protocol: as §1, §2
Data set [1] in a line: Trypan blue cell viability at the working concentrations, all three cell lines. Format: cell-based. To be noted: human (HEK-t, CFBE41O^−) and rat (FRT), in all three cell lines; for viability at 24 h, 3 µM: at 3 μM. The protocol: as §1, §2
In data set [2] the target is T1, F508del CFTR (Homo sapiens, UniProt P13569, DEL508-508). Nature of the data set: YFP functional assay in FRT cells.
Description: (§3) The YFP functional assay was applied to assess whether the increase in protein expression induced by treatment with the compounds under investigation correlated with an increase in F508del CFTR channel activity.
(§4) Cells were then incubated with 60 µL PBS plus forskolin (20 µM) and VX-770 (1 µM) for 25 min to maximally stimulate F508del-CFTR. The cells were then transferred to a microplate reader (Tristar2 S, Berthold Technologies, Bad Wildbad, Germany) equipped with 485 nm excitation and 535 nm emission filters.
(§5) Iodide influx was detected as fluorescence quenching as the I^− anion bound to intracellular YFP. After background subtraction and normalisation to the average fluorescence before NaI addition, the initial fluorescence decay rate (QR) was derived by fitting the signal with an exponential function.
In data set [3] the target is T1, F508del CFTR. The data set can be described thus: YFP functional assay in CFBE41O^− cells.
Description: as §3, §4, §5
Another data set addresses MSD1 CFTR domain (Homo sapiens, UniProt P13569). Nature of the data set: Western blot of CFTR single domain MSD1 in HEK-t cells. To be noted: 3 µM VX661, 3 µM VX445, 2 µM 2a, 7m, 7a, normalised to actin and to untreated domain (times of DMSO control), mean ± sem. Background: In western blotting, separated proteins are transferred to a membrane and probed.
For another data set, the target named is F508del NBD1 (Homo sapiens, UniProt P13569, DEL508-508). The data set can be described thus: Cycloheximide chase assay of F508del NBD1 in HEK-t cells. To be noted: for effect on stability / half-life of F508del NBD1 versus DMSO control: cycloheximide chase, result in words; for F508del NBD1 expression after cycloheximide, relative to time 0: 3 µM VX661/VX445, 2 µM 2a/7m/7a, mean ± sem.

Data set [4] addresses T1, F508del CFTR. Further details: Assessing the Impact of Corrector Combinations on Full-Length F508del CFTR Function; expressed in transfected cells; host or cells: Fisher rat thyroid (FRT) cells; human bronchial epithelial CFBE41o- cells. Particulars: Figure 1B; read-out: corrector half-maximal effective concentration (EC50); cited from earlier work.
The target in another data set is R domain of CFTR (Homo sapiens, UniProt P13569). The data set can be described thus: Western blot of CFTR R domain in HEK-t cells. To be noted: 3 µM VX661, 3 µM VX445, 2 µM 2a, 7m, 7a, normalised to actin and to untreated domain, mean ± sem.
Another data set has as its target WT NBD1 CFTR domain (Homo sapiens, UniProt P13569). The data set can be described thus: Western blot of CFTR single domain WT NBD1 in HEK-t cells. To be noted: 3 µM VX661, 3 µM VX445, 2 µM 2a, 7m, 7a, normalised to actin and to untreated domain, mean ± sem.
The mark [5] stands for this setting: 3 μM VX661, 3 μM VX445, 2 μM 2a, 7m, 7a, 18 h, forskolin + VX-770 stimulation.

Sequence of F508del NBD1 (P13569 with tags, fused parts or gaps DEL508-508): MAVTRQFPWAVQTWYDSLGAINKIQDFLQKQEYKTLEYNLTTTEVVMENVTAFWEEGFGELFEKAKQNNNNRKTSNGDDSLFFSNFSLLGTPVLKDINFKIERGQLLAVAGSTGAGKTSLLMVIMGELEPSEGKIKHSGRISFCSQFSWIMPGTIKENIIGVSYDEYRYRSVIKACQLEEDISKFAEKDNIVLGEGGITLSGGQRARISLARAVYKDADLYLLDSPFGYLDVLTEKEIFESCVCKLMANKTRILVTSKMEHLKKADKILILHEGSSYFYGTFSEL
T1 sequence (P13569 with tags, fused parts or gaps DEL508-508): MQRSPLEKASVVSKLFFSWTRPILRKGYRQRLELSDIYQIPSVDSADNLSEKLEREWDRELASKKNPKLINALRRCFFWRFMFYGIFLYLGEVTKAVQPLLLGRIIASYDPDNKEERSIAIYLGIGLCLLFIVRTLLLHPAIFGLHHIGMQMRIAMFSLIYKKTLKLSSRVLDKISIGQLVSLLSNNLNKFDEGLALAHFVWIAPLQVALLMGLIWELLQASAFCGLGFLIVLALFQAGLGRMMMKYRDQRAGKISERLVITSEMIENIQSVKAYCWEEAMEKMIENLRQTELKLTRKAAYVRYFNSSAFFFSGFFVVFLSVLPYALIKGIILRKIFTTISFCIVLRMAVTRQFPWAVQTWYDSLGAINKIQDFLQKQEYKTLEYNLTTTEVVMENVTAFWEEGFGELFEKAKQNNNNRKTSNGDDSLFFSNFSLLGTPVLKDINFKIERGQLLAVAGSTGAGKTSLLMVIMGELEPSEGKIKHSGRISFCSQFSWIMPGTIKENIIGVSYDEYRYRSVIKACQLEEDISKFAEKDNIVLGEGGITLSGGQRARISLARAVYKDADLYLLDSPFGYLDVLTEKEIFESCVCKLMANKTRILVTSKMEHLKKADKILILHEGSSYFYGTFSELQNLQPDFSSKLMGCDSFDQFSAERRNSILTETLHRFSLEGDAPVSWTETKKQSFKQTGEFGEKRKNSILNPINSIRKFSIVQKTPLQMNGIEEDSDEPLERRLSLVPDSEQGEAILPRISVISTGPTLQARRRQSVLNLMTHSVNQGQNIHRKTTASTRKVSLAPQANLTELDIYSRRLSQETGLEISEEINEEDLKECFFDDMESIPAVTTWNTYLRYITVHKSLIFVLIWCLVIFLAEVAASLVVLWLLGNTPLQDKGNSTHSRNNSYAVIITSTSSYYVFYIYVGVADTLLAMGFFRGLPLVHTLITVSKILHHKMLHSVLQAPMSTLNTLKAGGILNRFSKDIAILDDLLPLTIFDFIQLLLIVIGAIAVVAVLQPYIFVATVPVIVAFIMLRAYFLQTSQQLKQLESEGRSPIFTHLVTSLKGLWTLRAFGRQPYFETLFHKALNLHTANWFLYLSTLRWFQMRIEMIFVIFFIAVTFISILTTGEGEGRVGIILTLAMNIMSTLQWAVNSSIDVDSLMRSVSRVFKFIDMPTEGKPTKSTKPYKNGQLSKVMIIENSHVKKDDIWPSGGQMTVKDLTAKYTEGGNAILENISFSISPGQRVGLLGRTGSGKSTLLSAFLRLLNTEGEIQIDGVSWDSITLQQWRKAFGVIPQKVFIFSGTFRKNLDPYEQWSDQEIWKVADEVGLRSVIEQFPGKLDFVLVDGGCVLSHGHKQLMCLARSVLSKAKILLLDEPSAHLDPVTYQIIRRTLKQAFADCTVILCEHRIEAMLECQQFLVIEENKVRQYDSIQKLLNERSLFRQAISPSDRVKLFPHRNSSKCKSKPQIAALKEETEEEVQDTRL
Sequence of WT NBD1 CFTR domain (P13569 348-633): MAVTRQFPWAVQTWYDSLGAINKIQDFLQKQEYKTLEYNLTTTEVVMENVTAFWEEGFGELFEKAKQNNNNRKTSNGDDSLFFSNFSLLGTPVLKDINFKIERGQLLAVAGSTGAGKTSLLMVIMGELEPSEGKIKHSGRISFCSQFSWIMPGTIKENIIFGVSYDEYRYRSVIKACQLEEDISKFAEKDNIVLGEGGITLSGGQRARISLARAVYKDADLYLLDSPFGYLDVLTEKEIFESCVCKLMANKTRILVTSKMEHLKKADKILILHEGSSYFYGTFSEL
Sequence of R domain of CFTR (P13569 645-834): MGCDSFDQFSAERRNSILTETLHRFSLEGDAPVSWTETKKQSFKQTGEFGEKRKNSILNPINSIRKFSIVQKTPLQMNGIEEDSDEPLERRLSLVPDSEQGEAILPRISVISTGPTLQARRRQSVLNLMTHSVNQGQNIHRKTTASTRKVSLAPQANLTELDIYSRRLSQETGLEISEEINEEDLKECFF
Sequence of MSD1 CFTR domain (P13569 1-388): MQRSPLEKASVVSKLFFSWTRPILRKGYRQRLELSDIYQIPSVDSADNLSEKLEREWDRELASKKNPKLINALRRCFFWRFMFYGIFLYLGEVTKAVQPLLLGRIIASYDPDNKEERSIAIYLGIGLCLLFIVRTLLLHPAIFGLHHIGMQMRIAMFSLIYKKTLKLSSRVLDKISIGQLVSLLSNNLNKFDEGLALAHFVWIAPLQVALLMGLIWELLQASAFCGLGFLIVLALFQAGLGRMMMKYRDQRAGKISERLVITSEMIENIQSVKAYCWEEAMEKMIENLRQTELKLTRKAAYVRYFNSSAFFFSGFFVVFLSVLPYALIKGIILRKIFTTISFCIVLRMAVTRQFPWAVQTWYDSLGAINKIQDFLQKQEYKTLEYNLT
Description for F508del NBD1: The stability of NBD1-F508del was evaluated according to a previously established procedure [38, 50, 51]. […] Cells were harvested at six different time points (after 0, 1, 2, 4, 6, and 8 h), and samples of whole-cell SDS extracts were subjected to immunoblot analysis.

One may read the viability as a read-out of living cells in per cent, often relative to untreated cells. In the case of `O=C(c1ccccc1)c1sc(NC(=O)C2(c3ccc4c(c3)OCO4)CC2)nc1-c1ccccc1` [2a], the “TD50 (concentration required to achieve half maximum toxicity)” value (“TD50” for short) in the data set on HEK-t cells amounted to 2.44 ± 1.03 µM; in the data set on CFBE41O^− cells it was 10.11 ± 1.80 µM; in the data set on FRT cells it was 9.24 ± 2.25 µM. Moreover, the “TDMax (maximum toxicity)” value in the data set on HEK-t cells is 5.78 ± 0.04; in the data set with CFBE41O^− cells, 14.44 ± 0.06 µM; in the data set with FRT cells, 20.56 ± 0.06 µM. Moreover, the viability at 24 h, 2 µM in data set [1] (at 2 μM) is not below 90%. Besides, the “increase of YFP initial quenching rate (QR, iodide influx) over the control condition” value on F508del CFTR [2] (setting [5]) and on F508del CFTR [3] (setting [5]) was “significantly increased” each time. Further, the “F508del CFTR channel activity (QR) of double combinations with VX445, compared with VX445 alone” value on F508del CFTR [2] (result in words) and at F508del CFTR [3] (result in words) was “none of the combinations with compound 2a produced an effect greater” throughout. The “F508del CFTR channel activity (QR) of double combinations with VX661, compared with VX661 alone” value at F508del CFTR [2] (result in words) and on F508del CFTR [3] (result in words) was “none of the combinations with compound 2a produced an effect greater” throughout. This compound also displayed an MSD1 expression level at MSD1 CFTR domain of 1.04 ± 0.05. In addition, the “F508del NBD1 expression level, % of the initial level” value (“F508del NBD1 expression level, %” for short) at F508del NBD1 (2 h after cycloheximide) turned out to be 78%; on F508del NBD1 (4 h after cycloheximide), 63%; on F508del NBD1 (6 h after cycloheximide), 45%. Further, the “effect on stability / half-life of F508del NBD1 versus DMSO control” value on F508del NBD1 is recorded as “significant increase; also recorded: significantly higher”. The “F508del NBD1 expression after cycloheximide, relative to time 0” value (shortened to “F508del NBD1 expression … relative to time 0”) is 1.00 ± 0.08 at F508del NBD1 (time 0 h); 0.87 ± 0.05 on F508del NBD1 (time 1 h); 0.78 ± 0.08 on F508del NBD1 (time 2 h); 0.63 ± 0.03 at F508del NBD1 (time 4 h); 0.45± 0.06 on F508del NBD1 (time 6 h); 0.34 ± 0.03 at F508del NBD1 (time 8 h).

`CSc1cccc(Nc2nc(-c3cccc(Cl)c3)cs2)c1` [FCG]: the EC50 at F508del CFTR [4] was 5.3 µM.

As for `Cc1nn(C)cc1S(=O)(=O)NC(=O)c1ccc(-n2ccc(OCC(C)(C)C(F)(F)F)n2)nc1N1C[C@@H](C)CC1(C)C` [VX445, elexacaftor], the “TD50” value came out at 9.60 ± 2.25 µM with HEK-t cells, 11.75 ± 3.42 µM in the data set on CFBE41O^− cells and 4.29 ± 0.32 µM in the data set on FRT cells. Moreover, the “TDMax (maximum toxicity)” value in the data set with CFBE41O^− cells amounted to 23.60 ± 0.07 µM; with FRT cells it was 10.79 ± 0.01 µM. In addition, the viability at 24 h, 3 µM in data set [1] was not below 90%. Further, at R domain of CFTR, the “R domain expression level” value amounted to 1.01 ± 0.04. Further, the “F508del NBD1 expression level, %” value on F508del NBD1 (2 h after cycloheximide) came out at 65%; at F508del NBD1 (4 h after cycloheximide), 42%; on F508del NBD1 (6 h after cycloheximide), 27%. Moreover, the “effect on stability / half-life of F508del NBD1 versus DMSO control” value at F508del NBD1 is on record as “did not prolong the half-life”. In addition, the “F508del NBD1 expression … relative to time 0” value worked out at 1.00 ± 0.04 at F508del NBD1 (time 0 h); 0.75 ± 0.12 on F508del NBD1 (time 1 h); 0.65 ± 0.07 at F508del NBD1 (time 2 h); 0.42 ± 0.09 at F508del NBD1 (time 4 h); 0.27 ± 0.05 on F508del NBD1 (time 6 h); 0.14 ± 0.03 at F508del NBD1 (time 8 h). Also, the “WT NBD1 expression level” value on WT NBD1 CFTR domain is 1.02 ± 0.18.

Consider `CC(C)(CO)c1cc2cc(NC(=O)C3(c4ccc5c(c4)OC(F)(F)O5)CC3)c(F)cc2n1C[C@@H](O)CO` [VX661, tezacaftor], for which the “TD50” value in the data set on HEK-t cells is 27.15 ± 17.88 µM; with CFBE41O^− cells, 7.51 ± 2.22 µM; in the data set on FRT cells, 11.09 ± 3.22 µM. Also, the entries for the “TDMax (maximum toxicity)” value in the data set on CFBE41O^− cells and in the data set on FRT cells were 15.62 ± 0.06 µM and 23.59 ± 0.08 µM, respectively. For the same compound, the viability at 24 h, 3 µM in [1] was not below 90%. Besides, at R domain of CFTR, the “R domain expression level” value was found to be 1.06± 0.09. Besides, the “F508del NBD1 expression level, %” value on F508del NBD1 (2 h after cycloheximide) is reported as 62%; on F508del NBD1 (4 h after cycloheximide), 45%; on F508del NBD1 (6 h after cycloheximide), 26%. Moreover, the “effect on stability / half-life of F508del NBD1 versus DMSO control” value at F508del NBD1 was “did not prolong the half-life”. Moreover, the “F508del NBD1 expression … relative to time 0” value at F508del NBD1 (time 0 h) was 1.00 ± 0.02; at F508del NBD1 (time 1 h), 0.73 ± 0.12; at F508del NBD1 (time 2 h), 0.62 ± 0.13; at F508del NBD1 (time 4 h), 0.45 ± 0.11; at F508del NBD1 (time 6 h) it was 0.26 ± 0.08; on F508del NBD1 (time 8 h), 0.09 ± 0.03. In addition, at WT NBD1 CFTR domain, the “WT NBD1 expression level” value is recorded as 1.00± 0.15.
